The assay deals with T1, Calcium Sensing Receptor (CaSR) (Homo sapiens, UniProt P41180).
T1 construct: expressed in transfected cells
T1 sequence (P41180 20-1078): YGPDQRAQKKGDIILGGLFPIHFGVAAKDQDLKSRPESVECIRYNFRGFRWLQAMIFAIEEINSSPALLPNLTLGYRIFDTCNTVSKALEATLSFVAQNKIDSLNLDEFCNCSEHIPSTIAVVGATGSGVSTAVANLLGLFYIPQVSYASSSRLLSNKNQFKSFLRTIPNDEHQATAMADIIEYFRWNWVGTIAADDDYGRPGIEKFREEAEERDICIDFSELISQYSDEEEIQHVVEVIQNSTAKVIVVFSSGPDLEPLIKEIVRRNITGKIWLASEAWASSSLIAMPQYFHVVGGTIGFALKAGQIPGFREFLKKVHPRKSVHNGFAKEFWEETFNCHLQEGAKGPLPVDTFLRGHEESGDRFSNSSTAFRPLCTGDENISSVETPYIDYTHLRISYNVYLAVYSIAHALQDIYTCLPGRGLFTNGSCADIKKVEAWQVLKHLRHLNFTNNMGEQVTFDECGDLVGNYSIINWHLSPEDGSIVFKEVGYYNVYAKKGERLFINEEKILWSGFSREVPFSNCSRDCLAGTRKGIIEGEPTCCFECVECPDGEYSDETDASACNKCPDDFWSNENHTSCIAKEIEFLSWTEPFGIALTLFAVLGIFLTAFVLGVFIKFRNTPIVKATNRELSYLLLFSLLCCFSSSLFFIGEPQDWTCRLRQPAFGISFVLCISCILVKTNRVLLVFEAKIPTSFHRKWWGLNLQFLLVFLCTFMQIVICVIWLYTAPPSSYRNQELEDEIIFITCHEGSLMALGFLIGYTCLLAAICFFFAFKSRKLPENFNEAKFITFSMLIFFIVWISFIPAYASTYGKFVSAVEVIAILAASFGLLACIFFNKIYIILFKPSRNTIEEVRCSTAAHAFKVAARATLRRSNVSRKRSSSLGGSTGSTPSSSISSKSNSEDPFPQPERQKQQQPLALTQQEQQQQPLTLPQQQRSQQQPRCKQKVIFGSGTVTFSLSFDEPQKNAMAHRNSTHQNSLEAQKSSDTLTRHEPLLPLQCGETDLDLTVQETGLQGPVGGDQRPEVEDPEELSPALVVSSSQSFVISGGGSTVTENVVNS
Nature of the assay: In-vitro assay of calcimimetics through modulation of Calcium Sensing Receptor (intracellular calcium increase, FLIPR). The class given is cell-based. Conditions: stably transfected HEK293 cells expressing hCaSR; Fluo4NW dye; 0.3 mM CaCl2; 8-point assay; read-out: EC50 Range. As to the method:
Certain illustrative compounds within the scope of the invention are screened for CaSR activity according to the procedure given below. The screening of the compounds may also be carried by other methods and procedures known to skilled in the art.
In-vitro assay method of Calcimimetics through modulation of Calcium Sensing Receptor (CaSR):
The ability of the compounds to modulate Calcium sensing receptor is determined by measuring an increase in intracellular calcium [Ca^2+]i. Stably transfected HEK293 cells expressing hCaSR_pTriEx-3 hygro vector are developed. Cells are grown overnight on a 96-well plate to 80% confluency in Ham's F12 containing 20% FBS at 37° C., 5% CO2. Subsequently, cells are washed extensively with 20 mM HEPES buffer containing 126 mM […], 1 mM MgCl2 and 4 mM KCl to remove serum components that might interfere with the assay. Cells are loaded with calcium sensing Fluo4NW dye in HEPES base buffer containing 0.1% BSA and lmg/ml glucose for 30 minutes to measure changes in intracellular calcium. The activities of the compounds are measured in FLIPR using 0.3 mM CaCl2 in 20 mM HEPES base buffer. The effectiveness of the compound to modulate receptor activity is determined by calculating the EC50 responses for that compound in an 8-point assay and plotted using GraphPad Prism 5.
The compounds prepared were tested using the above assay procedure and the results obtained are given below.
In general terms: Calcium assays in cells follow changes in intracellular calcium, usually with a dye or a luminescent sensor.

Structures are written as SMILES. Where a name gives a salt, the structure may show the parent alone. Where only a bound is given, the exact number is not on record here.

As a reminder, the EC50 is the midpoint of the concentration-response curve. In the case of `Cc1ccc(C2C[C@H](CCN[C@H](C)c3ccc(F)c4ccccc34)Cc3ccccc32)cc1C(=O)O` (stereo partly drawn) [Example 25, 5-((3S)-3-(2-(((R)-1-(4-Fluoronaphthalen-1-yl)ethyl)amino)ethyl)-1,2,3,4-tetrahydronaphthalen-1-yl)-2-methylbenzoic acid hydrochloride], the EC50 lay in the range of 0.02 to 0.05 µM.
As to `Cc1ccc(C2CC(CN[C@H](C)c3cccc4ccccc34)Cc3ccccc32)cc1C(=O)O` (single isomer, unassigned) [Example 8b, hydrochloride], the concentration giving a half-maximal response (EC50) was less than 0.02 µM.
Under `COc1cc([C@@H](C)NC[C@@H]2Cc3ccccc3C(c3ccc(C)c(C(=O)O)c3)C2)ccc1F` (single isomer, unassigned) [Example 16a, hydrochloride] stands less than 0.02 µM.
Next, `Cc1c(C(=O)O)cccc1N1CC(CCCN[C@H](C)c2ccc(F)c3ccccc23)Cc2ccccc21` (single isomer, unassigned) [Example 79a, hydrochloride]: less than 0.02 µM.
Under `Cc1ccc(C2C[C@H](CCCN[C@H](C)c3ccc(F)c4ccccc34)Cc3ccccc32)cc1C(=O)O` (stereo partly drawn) [Example 29, 5-((3S)-3-(3-(((R)-1-(4-fluoronaphthalen-1-yl)ethyl)amino)propyl)-1,2,3,4-tetrahydronaphthalen-1-yl)-2-methylbenzoic acid hydrochloride] stands less than 0.02 µM.
Consider `Cc1ccc(N2CC(CCCN[C@H](C)c3cccc4ccccc34)Cc3ccccc32)cc1C(=O)O` (single isomer, unassigned) [Example 78b, hydrochloride], for which the 50% effective concentration (EC50) was less than 0.02 µM.
Turning to `C[C@@H](NCC1Cc2ccccc2C(c2cccc(C(=O)O)c2)C1)c1cccc2ccccc12` (single isomer, unassigned) [Example 2b, hydrochloride], the EC50 lay in the range of 0.05 to 0.2 µM.
Next, `Cc1cc(C(=O)O)cc(C2CC(CN[C@H](C)c3cccc4ccccc34)Cc3ccccc32)c1` (single isomer, unassigned) [Example 9c, hydrochloride]: 0.05 to 0.2 µM.
Under `Cc1ccc(C(=O)O)cc1C1C[C@H](CN[C@H](C)c2cccc3ccccc23)Cc2ccccc21` (single isomer, unassigned) [Example 14b, hydrochloride] stands less than 0.02 µM; under `Cc1ccc(C2CC(CN[C@H](C)c3cccc4ccccc34)Cc3ccccc32)cc1C(=O)O` (single isomer, unassigned) [Example 8a, hydrochloride], less than 0.02 µM.
For `Cc1ccc(C2C[C@H](CN[C@H](C)c3ccc(F)c4ccccc34)Cc3ccccc32)cc1C(=O)O` (single isomer, unassigned) [Example 19a, hydrochloride], the EC50 was less than 0.02 µM.
Consider `Cc1ccc(C2CC(N[C@H](C)c3cccc4ccccc34)Cc3ccccc32)cc1C(=O)O` (stereo partly drawn) [Example 22, 2-Methyl-5-(3-(((R)-1-(naphthalen-1-yl)ethyl)amino)-1,2,3,4-tetrahydronaphthalen-1-yl)benzoic acid hydrochloride], for which the EC50 lay within 0.02 to 0.05 µM.
For the molecule `COc1cc([C@@H](C)NCC2Cc3ccccc3N(c3ccc(C)c(C(=O)O)c3)C2)ccc1F` (single isomer, unassigned) [Example 73b, hydrochloride], the 50% effective concentration (EC50) lay within 0.05 to 0.2 µM.
Next, `Cc1cc(C2C[C@H](CN[C@H](C)c3cccc4ccccc34)Cc3ccccc32)ccc1C(=O)O` (single isomer, unassigned) [Example 13b, hydrochloride]: less than 0.02 µM; `Cc1ccc(N2CC(CN[C@H](C)c3cccc4ccccc34)Cc3ccccc32)c(C)c1C(=O)O` (single isomer, unassigned) [Example 71a, hydrochloride]: less than 0.02 µM.
Under `Cc1ccc(N2CC(CCCN[C@H](C)c3cccc4ccccc34)Cc3ccccc32)cc1OCC(=O)O` (single isomer, unassigned) [Example 80b, hydrochloride] stands 0.02 to 0.05 µM; under `Cc1ccc(N2CC(CN[C@H](C)c3cccc4ccccc34)Cc3cc(F)ccc32)cc1C(=O)O` (single isomer, unassigned) [Example 75a, hydrochloride], less than 0.02 µM.
Next, `Cc1cc(C2C[C@H](CN[C@H](C)c3cccc4ccccc34)Cc3ccccc32)ccc1C(=O)O` (single isomer, unassigned) [Example 13a, hydrochloride]: 0.02 to 0.05 µM; `Cc1ccc(N2CC(CCN[C@H](C)c3cccc4ccccc34)Cc3ccccc32)cc1OCC(=O)O` (single isomer, unassigned) [Example 77b, hydrochloride]: less than 0.02 µM; `Cc1ccc(C2C[C@H](CCN[C@H](C)c3cccc4ccccc34)Cc3ccccc32)cc1C(=O)O` (single isomer, unassigned) [Example 27a, hydrochloride]: less than 0.02 µM.
In the case of `C[C@@H](NCC1Cc2ccccc2C(c2ccc(F)c(C(=O)O)c2)C1)c1cccc2ccccc12` (single isomer, unassigned) [Example 7b, hydrochloride], the 50% effective concentration (EC50) is less than 0.02 µM.
Turning to `Cc1ccc(C(=O)O)cc1C1C[C@H](CN[C@H](C)c2cccc3ccccc23)Cc2ccccc21` (single isomer, unassigned) [Example 14a, hydrochloride], the EC50 was 0.05 to 0.2 µM.
Under `COc1cc([C@@H](C)NCC2Cc3ccccc3N(c3ccc(C)c(C(=O)O)c3)C2)ccc1F` (single isomer, unassigned) [Example 73a, hydrochloride] stands less than 0.02 µM; under `Cc1ccc(C2CC(CN[C@H](C)c3cccc4ccccc34)Cc3ccccc32)cc1C(=O)O` (single isomer, unassigned) [Example 8d, hydrochloride], 0.02 to 0.05 µM.
Regarding `Cc1ccc(N2C[C@@H](CN[C@H](C)c3cccc4ccccc34)Cc3ccccc32)cc1C(=O)O` [Example 69a, 2-Methyl-5-(3-((((R)-1-(naphthalen-1-yl)ethyl)amino)methyl)-3,4-dihydroquinolin-1(2H)-yl)benzoic acid hydrochloride], the EC50 was less than 0.02 µM.
For `Cc1ccc(C2C[C@@H](CCCN[C@H](C)c3cccc4ccccc34)Cc3ccccc32)cc1C(=O)O` (stereo partly drawn) [Example 31, 2-Methyl-5-((3R)-3-(3-(((R)-1-(naphthalen-1-yl)ethyl)amino)propyl)-1,2,3,4-tetrahydronaphthalen-1-yl)benzoic acid hydrochloride], the EC50 was less than 0.02 µM.
For `C[C@@H](NCC1Cc2ccccc2C(c2ccc(F)c(C(=O)O)c2)C1)c1cccc2ccccc12` (single isomer, unassigned) [Example 7c, hydrochloride], the EC50 was 0.02 to 0.05 µM.
On to `COc1cc([C@@H](C)NC[C@@H]2Cc3ccccc3C(c3ccc(C)c(C(=O)O)c3C)C2)ccc1F` (stereo partly drawn) [Example 17, 3-((3S)-3-((((R)-1-(4-Fluoro-3-methoxyphenyl)ethyl)amino)methyl)-1,2,3,4-tetrahydronaphthalen-1-yl)-2,6-dimethylbenzoic acid hydrochloride], for which the concentration giving a half-maximal response (EC50) was less than 0.02 µM.
Next, `Cc1ccc(N2CC(CCN[C@H](C)c3cccc4ccccc34)Cc3ccccc32)cc1C(=O)O` (single isomer, unassigned) [Example 76b, hydrochloride]: 0.02 to 0.05 µM; `COc1cc([C@@H](C)NC[C@@H]2Cc3ccccc3C(c3ccc(C)c(C(=O)O)c3)C2)ccc1F` (single isomer, unassigned) [Example 16b, hydrochloride]: 0.02 to 0.05 µM; `Cc1ccc(N2CC(CN[C@H](C)c3ccc(F)c4ccccc34)Cc3ccccc32)cc1C(=O)O` (single isomer, unassigned) [Example 72b, hydrochloride]: 0.02 to 0.05 µM.

These data come from patent US9227919B2, “Arylalkylamine compounds as calcium sensing receptor modulators” (Lupin Limited, priority 2012, dated 2016).
